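Test compounds were applied to cells in 96-well plates for 48 hours at 5 doses. At the GI50, growth is halved.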 Calls of active or inactive are those of the source. No stated cut-off is given here; in the data, active = GI50 up to about 1.1 µM and inactive = higher.
Columns and labels:
Assay in all cases: inhibition of tumour cell growth, NCI panel, 48 h
[1] = test system: EKVX
[2] = test system: M14
[3] = test system: RPMI-8226
[4] = test system: SK-MEL-28
[5] = test system: OVCAR-3
[6] = test system: NCI-H23
[7] = test system: MOLT-4
[8] = test system: UACC-62
[9] = test system: Malme-3M
[10] = test system: NCI-H226
[11] = test system: NCI/ADR-RES
[12] = test system: OVCAR-4
[13] = test system: CAKI-1
[14] = test system: IGROV-1
[15] = test system: HL-60
[16] = test system: HT-29
[17] = test system: HCC 2998
[18] = test system: SK-OV-3
[19] = test system: UACC-257
[20] = test system: SK-MEL-2

Row | SMILES | GI50 [1] | GI50 [2] | GI50 [3] | GI50 [4] | GI50 [5] | GI50 [6] | GI50 [7] | GI50 [8] | GI50 [9] | GI50 [10] | GI50 [11] | GI50 [12] | GI50 [13] | GI50 [14] | GI50 [15] | GI50 [16] | GI50 [17] | GI50 [18] | GI50 [19] | GI50 [20]
1 | CC(=O)OCC1OC(n2c(-c3ccc(Cl)cc3)cc(-c3ccccc3)c(C#N)c2=S)C(OC(C)=O)C(OC(C)=O)C1OC(C)=O (stereo not drawn) | 17.7 µM (inactive) | 4.98 µM (inactive) | 8.91 µM (inactive) | 6.5 µM (inactive) | 10.6 µM (inactive) | 14.2 µM (inactive) | 12.8 µM (inactive) | 3.85 µM (inactive) | 2.87 µM (inactive) | 4.28 µM (inactive) | 6.71 µM (inactive) | 1.79 µM (inactive) | 13.9 µM (inactive) | 13.1 µM (inactive) | 3.18 µM (inactive) | 7.06 µM (inactive) | 7.14 µM (inactive) | 12.6 µM (inactive) |  | 
2 | CCOc1cc(/C=N\O)cc(/C=N/O)c1O | 33.3 µM (inactive) | 44 µM (inactive) | 24.7 µM (inactive) | 22.8 µM (inactive) | 31.1 µM (inactive) | 30 µM (inactive) | 29.1 µM (inactive) | 50.7 µM (inactive) | 37.2 µM (inactive) | 37.9 µM (inactive) | 41.7 µM (inactive) | 42.6 µM (inactive) | 21.9 µM (inactive) |  | 18.1 µM (inactive) | 29.4 µM (inactive) | 56.5 µM (inactive) | 59.4 µM (inactive) | 47.2 µM (inactive) | 18.1 µM (inactive)
3 | N#CC1(C#N)C2C=CC(C3CCC=C32)C1(C#N)C#N (stereo not drawn) | > 10 µM (inactive) | 5.79 µM (inactive) | 2.83 µM (inactive) | > 10 µM (inactive) | > 10 µM (inactive) | > 10 µM (inactive) | 2.14 µM (inactive) | > 10 µM (inactive) | 2.57 µM (inactive) | > 10 µM (inactive) | > 10 µM (inactive) | > 10 µM (inactive) | 6.37 µM (inactive) | > 10 µM (inactive) | 1.68 µM (inactive) | > 10 µM (inactive) | > 10 µM (inactive) | > 10 µM (inactive) | > 10 µM (inactive) | > 10 µM (inactive)
4 | Cc1c2ccncc2cc2c1[nH]c1ccccc12 | 4.4 µM (inactive) |  | 3.07 µM (inactive) | 3.85 µM (inactive) | 5.6 µM (inactive) | 4.08 µM (inactive) | 1.98 µM (inactive) | 5.11 µM (inactive) | 7.05 µM (inactive) | 6.14 µM (inactive) | 3.01 µM (inactive) | 6.12 µM (inactive) | 3.88 µM (inactive) | 6.22 µM (inactive) | 3.41 µM (inactive) | 4.42 µM (inactive) | 5.04 µM (inactive) | 5.65 µM (inactive) | 5.55 µM (inactive) | 7.43 µM (inactive)
5 | O=c1c(-c2ccccc2)c(SCCCN2CCCCC2)n(-c2ccccc2)c(=S)n1-c1ccccc1 | > 100 µM (inactive) |  | 17 µM (inactive) | 16.9 µM (inactive) | 18.2 µM (inactive) | 19 µM (inactive) | 18.2 µM (inactive) | 16.1 µM (inactive) | 21.5 µM (inactive) | 15.3 µM (inactive) | 16.5 µM (inactive) | 24 µM (inactive) | 19.5 µM (inactive) | 17.9 µM (inactive) | 16.6 µM (inactive) |  | 3.83 µM (inactive) | 19.8 µM (inactive) | 16.8 µM (inactive) | 15.9 µM (inactive)
6 | C=CCNC(=S)N/N=C1\C(=O)Nc2ccc([N+](=O)[O-])cc21 | 42.2 µM (inactive) | 62.1 µM (inactive) | 57.3 µM (inactive) | > 100 µM (inactive) | 69.2 µM (inactive) | 38.6 µM (inactive) | 16.7 µM (inactive) | > 100 µM (inactive) | > 100 µM (inactive) | > 100 µM (inactive) | 17.7 µM (inactive) | 41.4 µM (inactive) | 14.2 µM (inactive) | 23.3 µM (inactive) | 54.7 µM (inactive) | 68.7 µM (inactive) | 23.3 µM (inactive) | 34 µM (inactive) | 71 µM (inactive) | > 100 µM (inactive)
7 | COc1ccc(C2COc3cc(O)c(O)cc3C2)cc1 (stereo not drawn) | 14.1 µM (inactive) |  | 7.45 µM (inactive) | 10.7 µM (inactive) | 11.4 µM (inactive) | 17.7 µM (inactive) | 6.58 µM (inactive) | 14.1 µM (inactive) | 15.3 µM (inactive) | 39.6 µM (inactive) | 11 µM (inactive) | 12.1 µM (inactive) | 13.7 µM (inactive) | 16.7 µM (inactive) | 1.58 µM (inactive) | 40.7 µM (inactive) | 21.4 µM (inactive) | 86.3 µM (inactive) | 27.4 µM (inactive) | 54.6 µM (inactive)
8 | c1ccc(CSC(SCc2ccccc2)c2cccc3ccccc23)cc1 | > 10 µM (inactive) | > 10 µM (inactive) | 9.79 µM (inactive) | > 10 µM (inactive) |  | 3.82 µM (inactive) | > 10 µM (inactive) | > 10 µM (inactive) | > 10 µM (inactive) | > 10 µM (inactive) | > 10 µM (inactive) | > 10 µM (inactive) | > 10 µM (inactive) | > 10 µM (inactive) | > 10 µM (inactive) | > 10 µM (inactive) | > 10 µM (inactive) | > 10 µM (inactive) |  | > 10 µM (inactive)
9 | C=C1CC(C)(COc2ccc3c(C)cc(=O)oc3c2)OC1=O (stereo not drawn) | 4.7 µM (inactive) | 1.34 µM (inactive) | 0.414 µM (active) | 2.72 µM (inactive) | 2.31 µM (inactive) | 1.57 µM (inactive) | 1.47 µM (inactive) | 1.69 µM (inactive) | 1.29 µM (inactive) | 8.69 µM (inactive) | 1.95 µM (inactive) | 2.62 µM (inactive) | 1.3 µM (inactive) | 2.47 µM (inactive) | 0.232 µM (active) | 1.03 µM (active) | 3.5 µM (inactive) | 3.73 µM (inactive) | 1.25 µM (inactive) | 1.65 µM (inactive)
10 | NC1CCCCC1.O=P(O)(O)C(CSc1ccccc1)P(=O)(O)O | > 100 µM (inactive) |  | > 100 µM (inactive) | > 100 µM (inactive) | 47.9 µM (inactive) | > 100 µM (inactive) | > 100 µM (inactive) | > 100 µM (inactive) | > 100 µM (inactive) | > 100 µM (inactive) | > 100 µM (inactive) | > 100 µM (inactive) | > 100 µM (inactive) | > 100 µM (inactive) | > 100 µM (inactive) | > 100 µM (inactive) | > 100 µM (inactive) | > 100 µM (inactive) | > 100 µM (inactive) | > 100 µM (inactive)
11 | O=C(CC(=O)N1N=C(c2ccccc2)C(/N=N/c2ccc(S(=O)(=O)CCOS(=O)(=O)O)cc2)C1=O)Nc1ccc(Cl)cc1 (stereo not drawn) | > 100 µM (inactive) | 28.1 µM (inactive) | > 100 µM (inactive) | > 100 µM (inactive) | > 100 µM (inactive) | > 100 µM (inactive) | 79.3 µM (inactive) | > 100 µM (inactive) | > 100 µM (inactive) | > 100 µM (inactive) | > 100 µM (inactive) |  | > 100 µM (inactive) | 8.75 µM (inactive) | > 100 µM (inactive) | > 100 µM (inactive) | 59.4 µM (inactive) | > 100 µM (inactive) | > 100 µM (inactive) | > 100 µM (inactive)
12 | COC1OC(=O)[C@H]2O[N+]([O-])=C(C)[C@@H]12 (stereo partly drawn) | > 100 µM (inactive) |  | > 100 µM (inactive) | > 100 µM (inactive) | > 100 µM (inactive) | > 100 µM (inactive) | > 100 µM (inactive) | > 100 µM (inactive) | > 100 µM (inactive) | > 73.5 µM (inactive) | > 100 µM (inactive) | > 100 µM (inactive) | > 100 µM (inactive) | > 100 µM (inactive) | > 100 µM (inactive) | > 100 µM (inactive) | > 100 µM (inactive) | > 100 µM (inactive) | > 100 µM (inactive) | > 100 µM (inactive)
